{
  "source": "patent US10458916B2",
  "about": "“Rapid tests for the detection of inhibitors of enzymes and human exposure to the same” (priority 2011, dated 2019)",
  "key": {"[1]": {"molecular_target": "T1, cholinesterase in human plasma (Homo sapiens, UniProt P06276)", "T1 construct": "from tissue; host or cells: human plasma pool", "T1 sequence (P06276 29-602)": "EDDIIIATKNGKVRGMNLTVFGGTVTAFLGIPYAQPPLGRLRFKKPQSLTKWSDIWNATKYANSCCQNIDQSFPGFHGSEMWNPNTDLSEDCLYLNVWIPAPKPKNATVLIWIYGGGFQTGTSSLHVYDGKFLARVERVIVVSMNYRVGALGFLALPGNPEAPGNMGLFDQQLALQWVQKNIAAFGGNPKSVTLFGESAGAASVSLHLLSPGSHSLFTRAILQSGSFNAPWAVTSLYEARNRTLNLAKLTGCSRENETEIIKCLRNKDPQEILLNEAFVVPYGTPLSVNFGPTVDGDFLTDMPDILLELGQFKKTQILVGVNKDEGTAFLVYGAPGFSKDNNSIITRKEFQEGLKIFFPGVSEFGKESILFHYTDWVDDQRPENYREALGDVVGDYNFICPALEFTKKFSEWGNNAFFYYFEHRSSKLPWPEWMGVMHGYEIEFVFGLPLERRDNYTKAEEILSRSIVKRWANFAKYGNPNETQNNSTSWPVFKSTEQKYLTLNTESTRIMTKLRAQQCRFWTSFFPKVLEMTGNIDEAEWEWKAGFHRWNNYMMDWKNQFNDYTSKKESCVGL", "test": "Detection of cholinesterase inhibition in spiked human plasma on the NMI ticket", "format": "biochemical", "details": "human plasma pool spiked to final 100 ppm oxamyl, incubated overnight (22 hours) at room temperature; control zone unspiked pool"}, "AChE [2]": {"molecular_target": "T2, AChE (Electrophorus electricus, UniProt O42275)", "T2 sequence (O42275 24-633)": "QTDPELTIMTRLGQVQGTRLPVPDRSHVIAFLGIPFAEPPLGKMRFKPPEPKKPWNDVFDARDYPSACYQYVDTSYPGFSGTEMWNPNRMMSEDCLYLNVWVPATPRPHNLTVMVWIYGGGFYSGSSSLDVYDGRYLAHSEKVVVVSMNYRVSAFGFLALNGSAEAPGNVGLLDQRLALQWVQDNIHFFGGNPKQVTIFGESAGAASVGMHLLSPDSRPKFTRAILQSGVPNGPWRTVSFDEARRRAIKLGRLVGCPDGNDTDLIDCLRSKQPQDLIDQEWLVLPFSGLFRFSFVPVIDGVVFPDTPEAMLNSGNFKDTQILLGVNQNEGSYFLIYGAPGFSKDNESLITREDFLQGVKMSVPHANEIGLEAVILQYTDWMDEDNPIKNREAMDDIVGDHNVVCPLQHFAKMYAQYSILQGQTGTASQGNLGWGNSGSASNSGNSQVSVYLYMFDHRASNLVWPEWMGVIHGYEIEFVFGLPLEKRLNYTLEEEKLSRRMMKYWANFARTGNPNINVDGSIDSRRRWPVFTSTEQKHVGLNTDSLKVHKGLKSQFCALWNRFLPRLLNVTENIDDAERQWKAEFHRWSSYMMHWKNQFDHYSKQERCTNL", "test": "Effect of heating the AChE reaction vials on time of detection of a positive sample", "format": "biochemical, eel", "design": "purchased Sigma-Aldrich", "details": "0.1 ppm oxamyl in water; for Detection result, Heated: heating block 40° C.; for Detection result, Not Heated: room temperature (21° C.)", "description": "Water obtained from reverse osmosis treatment was spiked with 0.1 ppm oxamyl, a carbamate pesticide. The pesticide-contaminated sample was tested using the procedure described in Example 4. Two sets of two reagent vials containing AChE were opened. To the first vial of each set was added 1 mL of the test sample containing pesticide. To the second vial of each set was added 1 mL of a negative control water. All vials were thoroughly mixed. One set of vials was placed in a heating block set at 40° C., while the other set of vials was allowed to stand at room temperature (21° C.). From each set of vials, 50 μL was sampled at 5, 10, 15, and 20 minutes and transferred to corresponding reaction zones in test tickets. After 15 minutes incubation, the fluorescence in the reaction zones of each ticket were measured on a reader."}, "AChE [3]": {"molecular_target": "T2, AChE", "test": "Rapid ticket test for AChE inhibitors with lyophilized AChE and NMI substrate discs, hue ratio by reader", "details": "without oxidation", "protocol": "Filter discs ( 3/16″ diameter) of porous matrix Surewick Sample Pad C248 SA3J035V06 (Millipore). were punched from sheets using a manual punch and die.\nN-methyl indoxyl (NMI) acetate (100 mg, Sigma-Aldrich) was dissolved in 100 mL 200 proof (100%) USP ethyl alcohol (Sigma-Aldrich) for a final concentration of 1 mg/mL and added to the beaker containing the filter pads. The filter discs were mixed gently with a spatula for five minutes. The discs were then carefully removed from the solution and spread out on a polystyrene sheet and dried at 45° C. for two hours. The filter discs were then removed from the oven and stored in a resealable plastic bag with desiccant. […]\nThe tickets were allowed to react for 15 minutes at room temperature and then inserted into the handheld fluorescence reader comprised of low light color cameras, 400 nm UV LED and custom color analysis software (FIG. 2). Enzyme inhibition was detected by the difference in the hue measurement of the Test Sample compared to the negative control (FIG. 4). The reader calculates a ratio of the hue measured in the test sample well to the hue measured in the negative control well.\nAnalysis was alternatively performed by visual observation of the ticket using a 400 nm UV LED flashlight (FIGS. 7 and 8). Visually, inhibition was detected directly based on the decrease in fluorescence of the test sample compared to the negative control."}, "Carboxylesterase (CE)": {"tested_on": "Carboxylesterase (CE)", "test": "Rapid ticket test with lyophilized carboxylesterase (CE) and NMI substrate discs, no sample oxidation", "details": "without oxidation"}},
  "data": [
    {"smiles": "CNC(=O)O/N=C(\\SC)C(=O)N(C)C", "note": "[Oxamyl, oxamyl]", "values": [
      {"measurement": "hue ratio", "setting": "[1]", "result": 3.10},
      {"measurement": "Detection result, Heated", "setting": "AChE [2]; 5 min", "result": "positive"},
      {"measurement": "Detection result, Heated", "setting": "AChE [2]; 10 min", "result": "positive"},
      {"measurement": "Detection result, Heated", "setting": "AChE [2]; 15 min", "result": "positive"},
      {"measurement": "Detection result, Heated", "setting": "AChE [2]; 20 min", "result": "positive"},
      {"measurement": "Detection result, Not Heated", "setting": "AChE [2]; 5 min", "result": "negative"},
      {"measurement": "Detection result, Not Heated", "setting": "AChE [2]; 10 min", "result": "negative"},
      {"measurement": "Detection result, Not Heated", "setting": "AChE [2]; 15 min", "result": "positive"},
      {"measurement": "Detection result, Not Heated", "setting": "AChE [2]; 20 min", "result": "positive"},
      {"measurement": "Reaction with AChE (in words)", "setting": "AChE [3]", "result": "react strongly with AChE"}
    ]},
    {"smiles": "COP(N)(=O)SC", "note": "(stereo not shown) [Methamidophos, methamidophos]", "values": [
      {"measurement": "Reaction with CE compared with AChE (in words)", "setting": "Carboxylesterase (CE)", "result": "react more strongly with CE than with AChE"}
    ]},
    {"smiles": "CNC(=O)O/N=C/C(C)(C)SC", "note": "[Aldicarb, aldicarb]", "values": [
      {"measurement": "Reaction with AChE (in words)", "setting": "AChE [3]", "result": "react strongly with AChE"}
    ]},
    {"smiles": "COP(=S)(OC)Oc1ccc([N+](=O)[O-])cc1", "note": "[Methyl Parathion, methyl parathion]", "values": [
      {"measurement": "Reaction with CE compared with AChE (in words)", "setting": "Carboxylesterase (CE)", "result": "react more strongly with CE than with AChE"}
    ]}
  ]
}
